Test results reported in patent US20260262643A1, “HERBICIDAL BENZOXAZINES” (FMC CORPORATION, priority 2022, published 2026).

How the values were obtained:
barnyardgrass [1] = test: Test C preemergence; format: in vivo, Echinochloa crusgalli
Outline: (§1)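 Test material, in non-phytotoxic solvent with surfactant, was sprayed on the soil directly after seeding (preemergence) or on young plants of 2–10 cm with one to two leaves (postemergence). Greenhouse, 10 days; 0–100 visual control scale.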

sedge, umbrella = test: Test D flooded paddy test; format: in vivo, Cyperus difformis; details: 250 g ai/ha, applied to paddy water, visual rating after 13 to 14 days, scale 0 to 100 (0 no effect, 100 complete control)
Outline: (§2)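 At the 2-leaf stage, floodwater 3 cm deep received the test compound; that depth persisted throughout. Plants scored visually 13 to 14 days on, 0 (no effect) to 100 (complete control), dash indicating no result.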

corn [2] = test: Test C preemergence; format: in vivo, Zea mays
Outline: as §1

wheat [3] = test: Test C postemergence; format: in vivo, Triticum aestivum; details: 10 days, 0 to 100 scale (0 no effect, 100 complete control)
Outline: as §1

oat, wild [4] = test: Test C postemergence; format: in vivo, Avena fatua; details: 10 days, 0 to 100 scale (0 no effect, 100 complete control)
Outline: as §1

ryegrass, Italian [5] = test: Test C postemergence; format: in vivo, Lolium multiflorum; details: 10 days, 0 to 100 scale (0 no effect, 100 complete control)
Outline: as §1

pigweed, palmer [6] = test: Test C preemergence; format: in vivo, Amaranthus palmeri
Outline: as §1

ragweed [7] = test: Test C postemergence; format: in vivo, Ambrosia artemisiifolia; details: 10 days, 0 to 100 scale (0 no effect, 100 complete control)
Outline: as §1

horseweed = test: Test C postemergence; format: in vivo, Erigeron canadensis; details: 10 days, 0 to 100 scale (0 no effect, 100 complete control)
Outline: as §1

wheat [8] = test: Test C preemergence; format: in vivo, Triticum aestivum
Outline: as §1

ragweed [9] = test: Test C preemergence; format: in vivo, Ambrosia artemisiifolia
Outline: as §1

ryegrass, Italian [10] = test: Test C preemergence; format: in vivo, Lolium multiflorum
Outline: as §1

corn [11] = test: Test C postemergence; format: in vivo, Zea mays; details: 10 days, 0 to 100 scale (0 no effect, 100 complete control)
Outline: as §1

green foxtail [12] = test: Test C postemergence; format: in vivo, Setaria viridis; details: 10 days, 0 to 100 scale (0 no effect, 100 complete control)
Outline: as §1

blackgrass [13] = test: Test C preemergence; format: in vivo, Alopecurus myosuroides
Outline: as §1

kochia [14] = test: Test C postemergence; format: in vivo, Bassia scoparia; details: 10 days, 0 to 100 scale (0 no effect, 100 complete control)
Outline: as §1

ducksalad = test: Test D flooded paddy test; format: in vivo, Heteranthera limosa; details: 250 g ai/ha, applied to paddy water, visual rating after 13 to 14 days, scale 0 to 100 (0 no effect, 100 complete control)
Outline: as §2

barnyardgrass [15] = test: Test C postemergence; format: in vivo, Echinochloa crusgalli; details: 10 days, 0 to 100 scale (0 no effect, 100 complete control)
Outline: as §1

pigweed, palmer [16] = test: Test C postemergence; format: in vivo, Amaranthus palmeri; details: 10 days, 0 to 100 scale (0 no effect, 100 complete control)
Outline: as §1

rice = test: Test D flooded paddy test; format: in vivo, Oryza sativa; details: 250 g ai/ha, applied to paddy water, visual rating after 13 to 14 days, scale 0 to 100 (0 no effect, 100 complete control)
Outline: as §2

galium = test: Test C postemergence; format: in vivo, Galium aparine; details: 10 days, 0 to 100 scale (0 no effect, 100 complete control)
Outline: as §1

soybean [17] = test: Test C preemergence; format: in vivo, Glycine max
Outline: as §1

green foxtail [18] = test: Test C preemergence; format: in vivo, Setaria viridis
Outline: as §1

oat, wild [19] = test: Test C preemergence; format: in vivo, Avena fatua
Outline: as §1

kochia [20] = test: Test C preemergence; format: in vivo, Bassia scoparia
Outline: as §1

soybean [21] = test: Test C postemergence; format: in vivo, Glycine max; details: 10 days, 0 to 100 scale (0 no effect, 100 complete control)
Outline: as §1

barnyardgrass [22] = test: Test D flooded paddy test; format: in vivo, Echinochloa crus-galli; details: 250 g ai/ha, applied to paddy water, visual rating after 13 to 14 days, scale 0 to 100 (0 no effect, 100 complete control)
Outline: as §2

blackgrass [23] = test: Test C postemergence; format: in vivo, Alopecurus myosuroides; details: 10 days, 0 to 100 scale (0 no effect, 100 complete control)
Outline: as §1

[24] = 500 g ai/ha, preemergence, 0 to 100 scale (0 no effect, 100 complete control)
[25] = Preemergence, 125 g ai/ha, 0 to 100 scale, 0 no effect, 100 complete control

## Cc1ccc(-n2cnc(CC#N)n2)cc1C(=O)N1C[C@H](C)Oc2c(Cl)cccc21 [Compound 364]
Barnyardgrass [1]; [24]
  Barnyardgrass plant response rating: 100
Barnyardgrass [1]; [25]
  Plant response rating, Barnyardgrass: 50
sedge, umbrella
  Plant response rating, Sedge, Umbrella (Flood): 95
Corn [2]; [24]
  Corn plant response rating: 30
Corn [2]; [25]
  Plant response rating, Corn: 10
Wheat [3]; 500 g ai/ha, postemergence
  Plant response rating, Wheat: 80
Wheat [3]; Postemergence, 125 g ai/ha
  Plant response rating, Wheat: 30
oat, wild [4]; 500 g ai/ha, postemergence
  Plant response rating, Oat, Wild: 70
oat, wild [4]; Postemergence, 125 g ai/ha
  Plant response rating, Oat, Wild: 60
ryegrass, Italian [5]; 500 g ai/ha, postemergence
  Plant response rating, Ryegrass, Italian: 100
ryegrass, Italian [5]; Postemergence, 125 g ai/ha
  Plant response rating, Ryegrass, Italian: 70
pigweed, palmer [6]; [24]
  Pigweed, Palmer plant response rating: 100
pigweed, palmer [6]; [25]
  Plant response rating, Pigweed, Palmer: 100
Ragweed [7]; 500 g ai/ha, postemergence
  Plant response rating, Ragweed: 80
Ragweed [7]; Postemergence, 125 g ai/ha
  Plant response rating, Ragweed: 70
horseweed; 500 g ai/ha, postemergence
  Plant response rating, Horseweed: 0
horseweed; Postemergence, 125 g ai/ha
  Plant response rating, Horseweed: 0
Wheat [8]; [24]
  Wheat plant response rating: 40
Wheat [8]; [25]
  Plant response rating, Wheat: 0
Ragweed [9]; [24]
  Ragweed plant response rating: 80
Ragweed [9]; [25]
  Plant response rating, Ragweed: 20
ryegrass, Italian [10]; [24]
  Ryegrass, Italian plant response rating: 90
ryegrass, Italian [10]; [25]
  Plant response rating, Ryegrass, Italian: 60
Corn [11]; 500 g ai/ha, postemergence
  Plant response rating, Corn: 50
Corn [11]; Postemergence, 125 g ai/ha
  Plant response rating, Corn: 30
Green foxtail [12]; 500 g ai/ha, postemergence
  Plant response rating, Foxtail, Green: 90
Green foxtail [12]; Postemergence, 125 g ai/ha
  Plant response rating, Foxtail, Green: 80
Blackgrass [13]; [24]
  Blackgrass plant response rating: 90
Blackgrass [13]; [25]
  Plant response rating, Blackgrass: 60
Kochia [14]; 500 g ai/ha, postemergence
  Plant response rating, Kochia: 90
Kochia [14]; Postemergence, 125 g ai/ha
  Plant response rating, Kochia: 70
ducksalad
  Plant response rating, Ducksalad (Flood): 80
Barnyardgrass [15]; 500 g ai/ha, postemergence
  Plant response rating, Barnyardgrass: 80
Barnyardgrass [15]; Postemergence, 125 g ai/ha
  Plant response rating, Barnyardgrass: 50
pigweed, palmer [16]; 500 g ai/ha, postemergence
  Plant response rating, Pigweed, Palmer: 90
pigweed, palmer [16]; Postemergence, 125 g ai/ha
  Plant response rating, Pigweed, Palmer: 70
rice
  Plant response rating, Rice (Flood): 10
galium; 500 g ai/ha, postemergence
  Plant response rating, Galium: 100
galium; Postemergence, 125 g ai/ha
  Plant response rating, Galium: 100
Soybean [17]; [24]
  Soybean plant response rating: 100
Soybean [17]; [25]
  Plant response rating, Soybean: 100
Green foxtail [18]; [24]
  Foxtail, Green plant response rating: 100
Green foxtail [18]; [25]
  Plant response rating, Foxtail, Green: 100
oat, wild [19]; [24]
  Oat, Wild plant response rating: 30
oat, wild [19]; [25]
  Plant response rating, Oat, Wild: 10
Kochia [20]; [24]
  Kochia plant response rating: 90
Kochia [20]; [25]
  Plant response rating, Kochia: 70
Soybean [21]; 500 g ai/ha, postemergence
  Plant response rating, Soybean: 100
Soybean [21]; Postemergence, 125 g ai/ha
  Plant response rating, Soybean: 100
Barnyardgrass [22]
  Plant response rating, Barnyardgrass (Flood): 10
Blackgrass [23]; 500 g ai/ha, postemergence
  Plant response rating, Blackgrass: 100
Blackgrass [23]; Postemergence, 125 g ai/ha
  Plant response rating, Blackgrass: 90
